Results reported in patent publication US10798941B2, “Microbiocidal oxadiazole derivatives” (SYNGENTA PARTICIPATIONS AG, priority 2016, dated 2020).

Key:
[1] = tested on: Puccinia recondita f. Sp. Tritici; assay: Puccinia recondita f. sp. tritici / wheat / leaf disc curative (brown rust); type: in vivo; settings: foliar, 144 h, 200 ppm in the applied formulation, wheat leaf segments cv. Kanzler, applied 1 day after inoculation, assessed 6 to 8 days after application, vs untreated, read-out: disease control
Summary of the method: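 Spray application came one day after spore inoculation of Kanzler wheat leaf segments kept on agar. Conditions: 19° C, 75% relative humidity, dark before treatment and 12 h light/12 h dark after. Efficacy = % disease control compared with untreated, 6–8 days post-application.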

[2] = tested on: Puccinia recondita f. Sp. Tritici; assay: Puccinia recondita f. sp. tritici / wheat / leaf disc preventative (brown rust); type: in vivo; settings: foliar, 168 h, 200 ppm in the applied formulation, wheat leaf segments cv. Kanzler, preventative, inoculated 1 day after application, assessed 7 to 9 days after application, vs untreated, read-out: disease control
Summary of the method: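 Wheat cv. Kanzler leaf segments on agar were sprayed with formulated compound in water, then inoculated with spores 1 day later. Incubated at 19° C, 75% rh, 12 h light/12 h dark; percent disease control versus untreated scored 7 to 9 days after application.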

Phakopsora pachyrhizi = Phakopsora pachyrhizi / soybean / leaf disc preventative (Asian soybean rust); type: in vivo; settings: foliar, 288 h, 200 ppm in the applied formulation, soybean leaf disks, inoculated one day after application, assessed 12 to 14 days after application, vs untreated, read-out: disease control
Summary of the method: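 Read-out is percent disease control relative to untreated check discs, assessed once untreated discs show adequate disease, 12 to 14 days after application. Compounds, tested at 200 ppm in the applied formulation, are sprayed onto soybean leaf discs one day before inoculation with a spore suspension.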

[3] = tested on: Glomerella Lagenarium (Colletotrichum Lagenarium); assay: Glomerella lagenarium (Colletotrichum lagenarium) liquid culture / cucumber / preventative (anthracnose); type: cell-based; settings: Colletotrichum orbiculare; 20 ppm in the applied formulation; liquid culture in PDB, 24° C., inhibition of growth measured photometrically 3 to 4 days after application, vs untreated; read-out: disease control
Summary of the method: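 Conidia from cryogenic storage were mixed into potato dextrose broth. This was added to compound diluted from DMSO into 0.025% Tween20, tested at 20 ppm. Plates were incubated in the dark at 24 °C and 96% relative humidity, and growth was read photometrically after 2–7 days as % activity versus untreated check.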

N#Cc1ncn(Cc2ccc(-c3noc(C(F)(F)F)n3)cc2)n1 [Compound 1.40, 1-[[4-[5-(trifluoromethyl)-1,2,4-oxadiazol-3-yl]phenyl]methyl]-1,2,4-triazole-3-carbonitrile]
≥ 80%: pest or weed control at 200 ppm [1] | pest or weed control at 200 ppm [2] | pest or weed control at 200 ppm (Phakopsora pachyrhizi) | inhibition of growth at 20 ppm [3]

Nc1nc(C(F)F)nn1Cc1ccc(-c2noc(C(F)(F)F)n2)cc1 [Compound 1.222, 5-(difluoromethyl)-2-[[4-[5-(trifluoromethyl)-1,2,4-oxadiazol-3-yl]phenyl]methyl]-1,2,4-triazol-3-amine]
≥ 80%: pest or weed control at 200 ppm [1] | pest or weed control at 200 ppm [2] | pest or weed control at 200 ppm (Phakopsora pachyrhizi) | inhibition of growth at 20 ppm [3]

COC(=O)c1cn(Cc2ccc(-c3noc(C(F)(F)F)n3)cc2)cn1 [Compound 1.88, methyl 1-[[4-[5-(trifluoromethyl)-1,2,4-oxadiazol-3-yl]phenyl]methyl]imidazole-4-carboxylate]
≥ 80%: pest or weed control at 200 ppm [1] | pest or weed control at 200 ppm [2] | pest or weed control at 200 ppm (Phakopsora pachyrhizi) | inhibition of growth at 20 ppm [3]

Cc1cc(C)n(C(C)c2ccc(-c3noc(C(F)(F)F)n3)cc2)n1 (centres unmarked) [Compound 1.303, 3-[4-[1-(3,5-dimethylpyrazol-1-yl)ethyl]phenyl]-5-(trifluoromethyl)-1,2,4-oxadiazole]
≥ 80%: pest or weed control at 200 ppm [1] | pest or weed control at 200 ppm [2] | pest or weed control at 200 ppm (Phakopsora pachyrhizi) | inhibition of growth at 20 ppm [3]

COc1nc(N)n(Cc2ccc(-c3noc(C(F)(F)F)n3)cc2)n1 [Compound 1.214, 5-methoxy-2-[[4-[5-(trifluoromethyl)-1,2,4-oxadiazol-3-yl]phenyl]methyl]-1,2,4-triazol-3-amine]
≥ 80%: pest or weed control at 200 ppm [1] | pest or weed control at 200 ppm [2] | pest or weed control at 200 ppm (Phakopsora pachyrhizi) | inhibition of growth at 20 ppm [3]

FC(F)(F)c1nc(-c2ccc(Cn3cc4ccccc4n3)cc2)no1 [Compound 1.86, 3-[4-(indazol-2-ylmethyl)phenyl]-5-(trifluoromethyl)-1,2,4-oxadiazole]
≥ 80%: pest or weed control at 200 ppm [1] | pest or weed control at 200 ppm [2] | pest or weed control at 200 ppm (Phakopsora pachyrhizi) | inhibition of growth at 20 ppm [3]

CC(C)c1nccn1Cc1ccc(-c2noc(C(F)(F)F)n2)cc1 [Compound 1.56, 3-[4-[(2-isopropylimidazol-1-yl)methyl]phenyl]-5-(trifluoromethyl)-1,2,4-oxadiazole]
≥ 80%: pest or weed control at 200 ppm [1] | pest or weed control at 200 ppm [2] | pest or weed control at 200 ppm (Phakopsora pachyrhizi) | inhibition of growth at 20 ppm [3]

CC1CN(Cc2ccc(-c3noc(C(F)(F)F)n3)cc2)CC(C)O1 (centres unmarked) [Compound 1.306, 2,6-dimethyl-4-[[4-[5-(trifluoromethyl)-1,2,4-oxadiazol-3-yl]phenyl]methyl]morpholine]
≥ 80%: pest or weed control at 200 ppm [1] | pest or weed control at 200 ppm [2] | pest or weed control at 200 ppm (Phakopsora pachyrhizi) | inhibition of growth at 20 ppm [3]

COCc1nn(Cc2ccc(-c3noc(C(F)(F)F)n3)cc2)cc1C(=O)OC [Compound 1.238, methyl 3-(methoxymethyl)-1-[[4-[5-(trifluoromethyl)-1,2,4-oxadiazol-3-yl]phenyl]methyl]pyrazole-4-carboxylate]
≥ 80%: pest or weed control at 200 ppm [1] | pest or weed control at 200 ppm [2] | pest or weed control at 200 ppm (Phakopsora pachyrhizi) | inhibition of growth at 20 ppm [3]

O=Cc1cn(Cc2ccc(-c3noc(C(F)(F)F)n3)cc2)cn1 [Compound 1.151, 1-[[4-[5-(trifluoromethyl)-1,2,4-oxadiazol-3-yl]phenyl]methyl]imidazole-4-carbaldehyde]
≥ 80%: pest or weed control at 200 ppm [1] | pest or weed control at 200 ppm [2] | pest or weed control at 200 ppm (Phakopsora pachyrhizi) | inhibition of growth at 20 ppm [3]

FC(F)(F)c1nc(-c2ccc(Cn3cnc(Br)c3)cc2)no1 [Compound 1.79, 3-[4-[(4-bromoimidazol-1-yl)methyl]phenyl]-5-(trifluoromethyl)-1,2,4-oxadiazole]
≥ 80%: pest or weed control at 200 ppm [1] | pest or weed control at 200 ppm [2] | pest or weed control at 200 ppm (Phakopsora pachyrhizi) | inhibition of growth at 20 ppm [3]

COC(=O)c1cnn(Cc2ccc(-c3noc(C(F)(F)F)n3)cc2)c1C1CC1 [Compound 1.236, methyl 5-cyclopropyl-1-[[4-[5-(trifluoromethyl)-1,2,4-oxadiazol-3-yl]phenyl]methyl]pyrazole-4-carboxylate]
≥ 80%: pest or weed control at 200 ppm [1] | pest or weed control at 200 ppm [2] | pest or weed control at 200 ppm (Phakopsora pachyrhizi) | inhibition of growth at 20 ppm [3]

FC(F)(F)c1nc(-c2ccc(Cn3cnnc3)cc2)no1 [Compound 1.226, 3-[4-(1,2,4-triazol-4-ylmethyl)phenyl]-5-(trifluoromethyl)-1,2,4-oxadiazole]
≥ 80%: pest or weed control at 200 ppm [1] | pest or weed control at 200 ppm [2] | pest or weed control at 200 ppm (Phakopsora pachyrhizi) | inhibition of growth at 20 ppm [3]

FC(F)(F)c1cn(Cc2ccc(-c3noc(C(F)(F)F)n3)cc2)cn1 [Compound 1.90]
≥ 80%: pest or weed control at 200 ppm [1] | pest or weed control at 200 ppm [2] | pest or weed control at 200 ppm (Phakopsora pachyrhizi) | inhibition of growth at 20 ppm [3]

FC(F)(F)c1nc(-c2ccc(Cn3cnc(I)c3)cc2)no1 [Compound 1.96, 3-[4-[(4-iodoimidazol-1-yl)methyl]phenyl]-5-(trifluoromethyl)-1,2,4-oxadiazole]
≥ 80%: pest or weed control at 200 ppm [1] | pest or weed control at 200 ppm [2] | pest or weed control at 200 ppm (Phakopsora pachyrhizi) | inhibition of growth at 20 ppm [3]

N#Cc1cn(Cc2ccc(-c3noc(C(F)(F)F)n3)cc2)cn1 [Compound 1.154, 1-[[4-[5-(trifluoromethyl)-1,2,4-oxadiazol-3-yl]phenyl]methyl]imidazole-4-carbonitrile]
≥ 80%: pest or weed control at 200 ppm [1] | pest or weed control at 200 ppm [2] | pest or weed control at 200 ppm (Phakopsora pachyrhizi) | inhibition of growth at 20 ppm [3]

CCCSc1ncnn1Cc1ccc(-c2noc(C(F)(F)F)n2)cc1 [Compound 1.207, 3-[4-[(5-propylsulfanyl-1,2,4-triazol-1-yl)methyl]phenyl]-5-(trifluoromethyl)-1,2,4-oxadiazole]
≥ 80%: pest or weed control at 200 ppm [1] | pest or weed control at 200 ppm [2] | pest or weed control at 200 ppm (Phakopsora pachyrhizi) | inhibition of growth at 20 ppm [3]

Cc1cc(C)n(Cc2ccc(-c3noc(C(F)(F)F)n3)cc2F)n1 [Compound 1.102, 3-[4-[(3,5-dimethylpyrazol-1-yl)methyl]-3-fluoro-phenyl]-5-(trifluoromethyl)-1,2,4-oxadiazole]
≥ 80%: pest or weed control at 200 ppm [1] | pest or weed control at 200 ppm [2] | pest or weed control at 200 ppm (Phakopsora pachyrhizi) | inhibition of growth at 20 ppm [3]

Nc1nc(C(F)(F)F)nn1Cc1ccc(-c2noc(C(F)(F)F)n2)cc1 [Compound 1.200, 5-(trifluoromethyl)-2-[[4-[5-(trifluoromethyl)-1,2,4-oxadiazol-3-yl]phenyl]methyl]-1,2,4-triazol-3-amine]
≥ 80%: pest or weed control at 200 ppm [1] | pest or weed control at 200 ppm [2] | pest or weed control at 200 ppm (Phakopsora pachyrhizi) | inhibition of growth at 20 ppm [3]

CC(C)ON=Cc1cnn(Cc2ccc(-c3noc(C(F)(F)F)n3)cc2)c1 [Compound 1.288, N-isopropoxy-1-[1-[[4-[5-(trifluoromethyl)-1,2,4-oxadiazol-3-yl]phenyl]methyl]pyrazol-4-yl]methanimine]
≥ 80%: pest or weed control at 200 ppm [1] | pest or weed control at 200 ppm [2] | pest or weed control at 200 ppm (Phakopsora pachyrhizi) | inhibition of growth at 20 ppm [3]
